Test results as given in patent US20260335329A1, “PROTEIN PHOSPHATASE AGONIST AND USE” (priority 2022, published 2026).
“And” between values parts separate entries of the source, which are not always exact repeats. Equal entries are not always repeated. Structures can show the parent of a compound that is named as a salt.

Tests used:
PC12 cells = assay: Survival rate of PC12 cells in the okadaic acid-induced injury model (CCK-8); type: cell-based
Procedure: PC12 cells were detached and counted. A cell suspension was prepared at 8.0×10^4 cells/mL. 100 μL of the cell suspension was added to each well of a 96-well cell culture plate. The 96-well cell culture plate was placed in an incubator at 37° C. in 5% CO2 and cultured for 24 h. In an experimental group, the PC12 cells were pre-incubated for 2 h in a culture medium containing a test compound (the concentrations of the compound were 0.1 μmol/L, 0.5 μmol/L, 1 μmol/L, 5 μmol/L, and 10 μmol/L respectively, and the concentrations of the compound were set according to the concentrations in Table 5, Table 6, Table 7, and Table 8). […] In addition, a negative control group (no test compound or okadaic acid added) and a model group (only okadaic acid added) were set. The 96-well cell culture plate was placed in an incubator at 37° C. in 5% CO2 and cultured for 24 h. The cells in the 96-well cell culture plate were stained with 10 μL of CCK-8 in each well, and then cultured in the incubator for 1 h to 2 h. The 96-well cell culture plate was shaken gently for 10 min to mix uniformly and remove bubbles from the 96-well cell culture plate. The OD value of each well at 2=450 nm was read by using a microplate reader. A survival rate of cells was calculated.
Calculation formula for the cell survival rate: […]
The effect of each compound on the survival rate of PC12 cells in the okadaic acid- and Aβ1-42-induced injury models was determined by the CCK-8 cell proliferation assay.

PP2A = assay: Okadaic acid-induced PP2A protein expression level in PC12 cells (Western Blot); type: cell-based; conditions: for PP2A (Western Blot signal) / PP2A(%): 24 h
Procedure: PC12 cells were inoculated into a T25 culture flask. After the cells were attached to the wall, compound 1 and compound 2 were added, and then the cells were incubated for 2 h. 40 nmol/L okadaic acid was then added. Then, the cells were incubated for 24 h. The protein was extracted. Based on the Western Blot assay, the PP2A protein expression level in PC12 cells was detected through SDS-PAGE and transfer, immunoblotting, color development, and G: BOX chemiXR5 imaging.

[1] = tested on: p-tauSer396 in SH-SY5Y cells; assay: Okadaic acid-induced phosphorylation of tau protein (p-tauSer396) in SH-SY5Y cells (Western Blot); type: cell-based, human; conditions: okadaic acid 40 nmol/L alone (model group), 24 h, SEM, n = 3
Procedure: SH-SY5Y cells were cultured in vitro for 24 h in culture media containing different concentrations of compound 2. Then, the cells were treated with 40 nmol/L okadaic acid for 24 h. The p-tauSer396 level of the SH-SY5Y cells was measured by the Western Blot assay.

[2] = Rattus norvegicus, PC-12, 24 h, compound 5 μmol/L, 2 h, then okadaic acid 50 nmol/L, 24 h, PC12 cells
[3] = compound 5 μmol/L, 2 h, then okadaic acid 50 nmol/L, 24 h, PC12 cells
[4] = compound 1 μmol/L, 2 h, then okadaic acid 40 nmol/L
[5] = compound 5 μmol/L, 2 h, then okadaic acid 40 nmol/L
[6] = compound 10 μmol/L, 2 h, then okadaic acid 40 nmol/L

Compound	viability at 5 µM (PC12 cells; [2]) [%]	OD value at 450 nm, Mean ± SD (PC12 cells; [3])	further results
COCc1cc2oc(=N)c3ccc(F)cc3n2n1 [Compound 10, 2-(methoxymethyl)-8-fluoro-5H-benzo[d]pyrazolo[5,1-b][1,3]oxazin-5-imine]	64.8	0.842 ± 0.008	
COCc1cc2oc(=N)c3cc(OC)ccc3n2n1 [Compound 13, 2-(methoxymethyl)-7-methoxy-5H-benzo[d]pyrazolo[5,1-b][1,3]oxazin-5-imine]	67.7	0.879 ± 0.009	
CCOCc1cc2oc(=N)c3cc(F)ccc3n2n1 [Compound 15, 2-(ethoxymethyl)-7-fluoro-5H-benzo[d]pyrazolo[5,1-b][1,3]oxazin-5-imine]	67.1	0.872 ± 0.012	
CCc1ccc2c(=N)oc3cc(COC)nn3c2c1 [Compound 9, 2-(methoxymethyl)-8-ethyl-5H-benzo[d]pyrazolo[5,1-b][1,3]oxazin-5-imine]	65.6	0.852 ± 0.010	
CSCc1cc2oc(=N)c3ccccc3n2n1 [Compound 7, 2-((methylthio)methyl)-5H-benzo[d]pyrazolo[5,1-b][1,3]oxazin-5-imine]	70.8	0.919 ± 0.008	
COCc1cc2oc(=N)c3cc(F)ccc3n2n1 [Compound 11, 2-(methoxymethyl)-7-fluoro-5H-benzo[d]pyrazolo[5,1-b][1,3]oxazin-5-imine]	66	0.857 ± 0.007	
COCCc1cc2oc(=N)c3ccc(F)cc3n2n1 [Compound 17, 2-(methoxyethyl)-8-fluoro-5H-benzo[d]pyrazolo[5,1-b][1,3]oxazin-5-imine]	67.9	0.882 ± 0.005	
CC(=O)OCc1cc2oc(=N)c3ccccc3n2n1 [Compound 6, (5-imino-5H-benzo[d]pyrazolo[5,1-b][1,3]oxazin-2-yl)methyl acetate]	68.4	0.889 ± 0.007	
CCCOCc1cc2oc(=N)c3ccccc3n2n1 [Compound 4, 2-(propoxymethyl)-5H-benzo[d]pyrazolo[5,1-b][1,3]oxazin-5-imine]	65.9	0.856 ± 0.012	
COCc1cc2oc(=N)c3cc(Cl)ccc3n2n1 [Compound 12, 2-(methoxymethyl)-7-chloro-5H-benzo[d]pyrazolo[5,1-b][1,3]oxazin-5-imine]	66.7	0.866 ± 0.003	
N=c1oc2cc(COC=O)nn2c2ccccc12 [Compound 5, (5-imino-5H-benzo[d]pyrazolo[5,1-b][1,3]oxazin-2-yl)methyl formate]	65.6	0.852 ± 0.004	
COCCCc1cc2oc(=N)c3ccc(F)cc3n2n1 [Compound 18, 2-(methoxypropyl)-8-fluoro-5H-benzo[d]pyrazolo[5,1-b][1,3]oxazin-5-imine]	65.5	0.851 ± 0.007	
CCCOCc1cc2oc(=N)c3cc(F)ccc3n2n1 [Compound 16, 2-(propoxymethyl)-7-fluoro-5H-benzo[d]pyrazolo[5,1-b][1,3]oxazin-5-imine]	66.9	0.869 ± 0.005	
N=c1oc2cc(CO)nn2c2ccccc12 [Compound 1, (5-imino-5H-benzo[d]pyrazolo[5,1-b][1,3]oxazin-2-yl) methanol]	70.5		PP2A (Western Blot signal) (PP2A; [4]): 437.09; PP2A(%) (PP2A; [4]): 14%; PP2A (Western Blot signal) (PP2A; [5]): 625.9; PP2A(%) (PP2A; [5]): 17%; PP2A (Western Blot signal) (PP2A; [6]): 953.23; PP2A(%) (PP2A; [6]): 22%; effect on the PP2A expression level (PP2A; compound 1, 5 and 10 μmol/L, compared with okadaic acid only): can significantly increase the PP2A expression level dose-dependently; viability at 0.1 µM (PC12 cells; Rattus norvegicus, PC-12, 24 h, compound 0.1 μmol/L, 2 h, then okadaic acid 50 nmol/L, 24 h, PC12 cells): 58.2%; viability at 0.5 µM (PC12 cells; Rattus norvegicus, PC-12, 24 h, compound 0.5 μmol/L, 2 h, then okadaic acid 50 nmol/L, 24 h, PC12 cells): 60.2%; viability at 1 µM (PC12 cells; Rattus norvegicus, PC-12, 24 h, compound 1 μmol/L, 2 h, then okadaic acid 50 nmol/L, 24 h, PC12 cells): 63.1%; viability at 10 µM (PC12 cells; Rattus norvegicus, PC-12, 24 h, compound 10 μmol/L, 2 h, then okadaic acid 50 nmol/L, 24 h, PC12 cells): 76.6%; survival rate compared with okadaic acid model group (PC12 cells; compound 0.1 μmol/L): statistical difference (P<0.05); OD value at 450 nm, Mean ± SD (PC12 cells; compound 0.1 μmol/L, 2 h, then okadaic acid 50 nmol/L, 24 h, PC12 cells): 1.337 ± 0.008; OD value at 450 nm, Mean ± SD (PC12 cells; compound 0.5 μmol/L, 2 h, then okadaic acid 50 nmol/L, 24 h, PC12 cells): 1.382 ± 0.013; OD value at 450 nm, Mean ± SD (PC12 cells; compound 1 μmol/L, 2 h, then okadaic acid 50 nmol/L, 24 h, PC12 cells): 1.449 ± 0.013; Survival rate % (PC12 cells; compound 5 μmol/L, 2 h, then okadaic acid 50 nmol/L, 24 h, PC12 cells, 1440 min, 5 µM): 71.70%; OD value at 450 nm, Mean ± SD (PC12 cells; compound 10 μmol/L, 2 h, then okadaic acid 50 nmol/L, 24 h, PC12 cells): 1.76 ± 0.032; survival rate compared with okadaic acid model group (PC12 cells; compound 0.5, 1, 5 and 10 μmol/L): significant statistical differences (P<0.01)
COCc1cc2oc(=N)c3ccc(C)cc3n2n1 [Compound 8, 2-(methoxymethyl)-8-methyl-5H-benzo[d]pyrazolo[5,1-b][1,3]oxazin-5-imine]	67.5	0.877 ± 0.009	
CCOc1ccc2c(c1)c(=N)oc1cc(COC)nn12 [Compound 14, 2-(methoxymethyl)-7-ethoxy-5H-benzo[d]pyrazolo[5,1-b][1,3]oxazin-5-imine]	66.7	0.866 ± 0.011	
CCOCc1cc2oc(=N)c3ccccc3n2n1 [Compound 3, 2-(ethoxymethyl)-5H-benzo[d]pyrazolo[5,1-b][1,3]oxazin-5-imine]	66	0.858 ± 0.009	
C=C1[C@@H](O)[C@@H]2O[C@]3(CC[C@H](/C=C/[C@@H](C)[C@@H]4CC(C)=C[C@@]5(O[C@H](C[C@@](C)(O)C(=O)O)CC[C@H]5O)O4)O3)CC[C@H]2O[C@@H]1[C@@H](O)C[C@H](C)[C@H]1O[C@@]2(CCCCO2)CC[C@H]1C [Okadaic Acid, okadaic acid, reference compound]			PP2A (Western Blot signal) (PP2A; okadaic acid 40 nmol/L alone): 339.39; PP2A(%) (PP2A; okadaic acid 40 nmol/L alone): 8%; p-tauSer396 level (%) [1]: 0.855 ± 0.023%; OD value at 450 nm, Mean ± SD (PC12 cells; okadaic acid 50 nmol/L alone (model group), 24 h, PC12 cells): 0.643 ± 0.014 and 1.225 ± 0.018 and 0.669 ± 0.025
